Laboratory results reported in ChEMBL document CHEMBL4368868, “Selected aryl thiosemicarbazones as a new class of multi-targeted monoamine oxidase inhibitors” (Medchemcomm, 2018).

Experiments:
[1] = Permeability of the compound in PBS/EtOH at 100 ug/ml incubated for 16 hrs by PAMPA; type: ADME; settings: read-out: permeability
[2] = biological target: T1, Amine oxidase [flavin-containing] B (Homo sapiens, UniProt P27338)
T1 sequence (P27338 whole entry): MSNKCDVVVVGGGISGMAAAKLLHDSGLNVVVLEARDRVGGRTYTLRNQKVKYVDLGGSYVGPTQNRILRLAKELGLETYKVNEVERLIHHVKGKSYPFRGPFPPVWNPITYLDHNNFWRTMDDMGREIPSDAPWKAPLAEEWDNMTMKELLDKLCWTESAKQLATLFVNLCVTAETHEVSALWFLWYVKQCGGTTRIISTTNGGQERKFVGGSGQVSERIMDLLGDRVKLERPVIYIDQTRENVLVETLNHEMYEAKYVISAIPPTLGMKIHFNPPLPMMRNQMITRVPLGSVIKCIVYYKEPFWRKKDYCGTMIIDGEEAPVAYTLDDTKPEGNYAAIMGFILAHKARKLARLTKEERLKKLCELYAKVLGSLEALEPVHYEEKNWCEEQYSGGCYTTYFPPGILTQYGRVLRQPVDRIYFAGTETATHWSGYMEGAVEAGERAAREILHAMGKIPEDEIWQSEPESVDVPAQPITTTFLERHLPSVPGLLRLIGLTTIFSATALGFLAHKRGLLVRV

Acetylcholinesterase = Acetylcholinesterase (Electrophorus electricus, UniProt O42275)
[3] = biological target: T1, Amine oxidase [flavin-containing] B; assay: Inhibition of MAOB (unknown origin) assessed as residual activity at 10 uM using benzylamine as substrate preincubated for 30 mins followed by substrate addition relative to control; settings: read-out: Activity
Homo sapiens = organism: Homo sapiens; assay: Selectivity index, ratio of IC50 for MAOA (unknown origin) to IC50 for MAOB (unknown origin)
[4] = biological target: T2, Amine oxidase [flavin-containing] A (Homo sapiens, UniProt P21397)
T2 sequence (P21397 whole entry): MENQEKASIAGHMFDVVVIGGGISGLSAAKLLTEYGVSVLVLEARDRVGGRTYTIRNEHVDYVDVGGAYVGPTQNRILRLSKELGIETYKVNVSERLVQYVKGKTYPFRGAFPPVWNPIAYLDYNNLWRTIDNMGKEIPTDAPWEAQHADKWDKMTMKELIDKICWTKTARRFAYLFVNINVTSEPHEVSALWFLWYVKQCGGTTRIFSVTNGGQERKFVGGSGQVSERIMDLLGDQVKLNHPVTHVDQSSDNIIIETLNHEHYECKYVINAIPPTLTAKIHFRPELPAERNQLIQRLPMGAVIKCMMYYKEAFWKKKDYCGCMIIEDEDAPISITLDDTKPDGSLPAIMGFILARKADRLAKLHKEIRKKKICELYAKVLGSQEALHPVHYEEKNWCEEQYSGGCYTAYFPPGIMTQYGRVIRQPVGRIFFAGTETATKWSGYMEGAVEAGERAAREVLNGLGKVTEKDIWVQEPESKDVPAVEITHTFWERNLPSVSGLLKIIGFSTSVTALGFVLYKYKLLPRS

[5] = biological target: T2, Amine oxidase [flavin-containing] A; assay: Inhibition of MAOA (unknown origin) assessed as residual activity at 10 uM using kynuramine as substrate preincubated for 30 mins followed by substrate addition relative to control; settings: read-out: Activity
[6] = biological target: T1, Amine oxidase [flavin-containing] B; assay: Competitive inhibition of MAOB (unknown origin) using varying levels of benzylamine as substrate preincubated for 15 mins followed by substrate addition and measured by Lineweaver-burk plot analysis
[7] = biological target: T1, Amine oxidase [flavin-containing] B; assay: Reversible inhibition of MAOB (unknown origin) assessed as residual enzyme activity at 0.54 uM using benzylamine as substrate pre-incubated for 30 mins followed by dialysis with pH 7.2 sodium phosphate buffer relative to control; settings: read-out: Activity
[8] = biological target: T1, Amine oxidase [flavin-containing] B; assay: Reversible inhibition of MAOB (unknown origin) assessed as residual enzyme activity at 0.54 uM using benzylamine as substrate measured after 30 mins relative to control; settings: 0.5 h, read-out: Activity
[9] = biological target: T1, Amine oxidase [flavin-containing] B; assay: Reversible inhibition of MAOB (unknown origin) assessed as residual enzyme activity at 0.08 uM using benzylamine as substrate pre-incubated for 30 mins followed by dialysis with pH 7.2 sodium phosphate buffer relative to control; settings: read-out: Activity
[10] = biological target: T1, Amine oxidase [flavin-containing] B; assay: Reversible inhibition of MAOB (unknown origin) assessed as residual enzyme activity at 0.08 uM using benzylamine as substrate measured after 30 mins relative to control; settings: 0.5 h, read-out: Activity
[11] = biological target: T2, Amine oxidase [flavin-containing] A; assay: Reversible inhibition of MAOA (unknown origin) assessed as residual enzyme activity at 3.6 uM using kynuramine as substrate measured after 30 mins relative to control; settings: 0.5 h, read-out: Activity
[12] = biological target: T2, Amine oxidase [flavin-containing] A; assay: Reversible inhibition of MAOA (unknown origin) assessed as residual enzyme activity at 3.6 uM using kynuramine as substrate pre-incubated for 30 mins followed by dialysis with pH 7.2 sodium phosphate buffer relative to control; settings: read-out: Activity
[13] = biological target: T2, Amine oxidase [flavin-containing] A; assay: Competitive inhibition of MAOA (unknown origin) using varying levels of kynuramine as substrate preincubated for 15 mins followed by substrate addition and measured by Lineweaver-burk plot analysis
[14] = biological target: T1, Amine oxidase [flavin-containing] B; settings: 0.5 h
[15] = biological target: T2, Amine oxidase [flavin-containing] A; assay: Irreversible inhibition of MAOA (unknown origin) assessed as residual enzyme activity at 0.014 uM using kynuramine as substrate measured after 30 mins relative to control; settings: 0.5 h, read-out: Activity
[16] = biological target: T2, Amine oxidase [flavin-containing] A; assay: Irreversible inhibition of MAOA (unknown origin) assessed as residual enzyme activity at 0.014 uM using kynuramine as substrate pre-incubated for 30 mins followed by dialysis with pH 7.2 sodium phosphate buffer relative to control; settings: read-out: Activity
[17] = biological target: T2, Amine oxidase [flavin-containing] A; assay: Reversible inhibition of MAOA (unknown origin) assessed as residual enzyme activity at 2 uM using kynuramine as substrate measured after 30 mins relative to control; settings: 0.5 h, read-out: Activity
[18] = biological target: T2, Amine oxidase [flavin-containing] A; assay: Reversible inhibition of MAOA (unknown origin) assessed as residual enzyme activity at 2 uM using kynuramine as substrate pre-incubated for 30 mins followed by dialysis with pH 7.2 sodium phosphate buffer relative to control; settings: read-out: Activity

Sequence of Acetylcholinesterase (O42275 whole entry): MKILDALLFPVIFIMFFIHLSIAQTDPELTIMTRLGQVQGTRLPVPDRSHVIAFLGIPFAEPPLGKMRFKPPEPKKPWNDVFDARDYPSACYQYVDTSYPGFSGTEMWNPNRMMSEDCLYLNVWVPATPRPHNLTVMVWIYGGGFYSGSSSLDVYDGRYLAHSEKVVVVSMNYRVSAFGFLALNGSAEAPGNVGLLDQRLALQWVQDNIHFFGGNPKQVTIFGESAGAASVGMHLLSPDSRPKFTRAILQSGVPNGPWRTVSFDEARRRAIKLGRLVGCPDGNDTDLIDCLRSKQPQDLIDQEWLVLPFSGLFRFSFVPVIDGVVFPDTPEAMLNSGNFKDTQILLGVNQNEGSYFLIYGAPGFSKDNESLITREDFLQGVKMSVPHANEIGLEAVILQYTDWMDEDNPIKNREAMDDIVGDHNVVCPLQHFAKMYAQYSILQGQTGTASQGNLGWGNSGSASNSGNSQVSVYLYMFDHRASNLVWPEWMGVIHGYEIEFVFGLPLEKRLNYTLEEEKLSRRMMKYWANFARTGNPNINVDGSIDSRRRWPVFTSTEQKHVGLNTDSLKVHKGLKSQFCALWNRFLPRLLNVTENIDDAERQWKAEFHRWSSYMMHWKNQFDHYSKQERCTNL

Structure (SMILES) | Papp at 16 h, 100 ug/ml [1] [×10⁻⁶ cm/s] | IC50 [2] [µM] | IC50 (Acetylcholinesterase) [µM] | activity at 10 µM [3] [%] | IC50 [4] [µM] | activity at 10 µM [5] [%] | also measured
NC(=S)N/N=C/c1ccccc1F | 10.3 | 7.61 | 30.8 | 33.5 | > 10 | 77.5 | Ratio IC50 (Homo sapiens): > 1.31
NC(=S)N/N=C/c1ccc(Br)cc1 |  | > 10 | 31.1 | 82.5 | > 10 | 59.5 | 
NC(=S)N/N=C/c1ccc(Cl)cc1 |  | > 10 | > 40 | 60.5 | > 10 | 76 | 
NC(=S)N/N=C/c1cccc(F)c1 | 13.1 | 0.27 | 26.6 | 3 | > 10 | 75.5 | Ki [6]: 0.12 µM; activity at 0.54 µM [7]: 81%; Ratio IC50 (Homo sapiens): > 37; activity at 0.54 µM [8]: 27.4%
N/C(S)=N/N=C/c1ccc([N+](=O)[O-])cc1 | 12.8 | 1.43 | 15.6 | 7.5 | > 10 | 75.5 | Ratio IC50 (Homo sapiens): > 6.99
NCCNC(=O)c1ccc(Cl)cn1 [LAZABEMIDE] |  |  |  |  | > 80 |  | activity at 0.08 µM [9]: 86.9%; activity at 0.08 µM [10]: 29.5%
NC(=S)N/N=C/c1ccccc1 [PHENYLTHIOSEMICARBAZONE] |  | > 10 | > 40 | 75.5 | > 10 | 83.5 | 
Cc1ccc(/C=N/NC(N)=S)cc1 |  | > 10 | > 40 | 91.5 | > 10 | 56.5 | 
CN(C)c1ccc(/C=N/NC(N)=S)cc1 | 10.1 | > 10 | 35.3 | 82.3 | 1.82 | 16.5 | activity at 3.6 µM [11]: 34.7%; activity at 3.6 µM [12]: 70.3%; Ki [13]: 0.97 µM
NC(=S)N/N=C/c1ccc(F)cc1 |  | > 10 | 37.9 | 86.5 | > 10 | 84.5 | 
NC(=S)N/N=C/c1ccc(O)cc1 |  | > 10 | > 40 | 87.5 | > 10 | 66 | 
C#CCN(C)Cc1ccccc1 [PARGYLINE] |  |  |  |  |  |  | activity at 0.2 µM [14]: 27.9%
C#CCN(C)CCCOc1ccc(Cl)cc1Cl [CLORGILINE] |  |  |  |  |  |  | activity at 0.014 µM [15]: 21.4%; activity at 0.014 µM [16]: 19.8%
COc1ccc(/C=N/NC(N)=S)cc1 | 11.2 | > 10 | 36.1 | 82.1 | 4.99 | 37.5 | Ratio IC50 (Homo sapiens): < 0.5
Cc1cccc(N2CC(CO)OC2=O)c1 (stereo not given) [TOLOXATONE] |  |  |  |  |  |  | activity at 2 µM [17]: 30.7%; activity at 2 µM [18]: 74%
N=C(S)N/N=C/c1ccc(C(F)(F)F)cc1 |  | > 10 | 36.2 | 77.5 | > 10 | 92.5 | 
CCc1ccc(/C=N/NC(N)=S)cc1 | 9.44 | > 10 | 26.7 | 86.2 | 5.98 | 36 | Ratio IC50 (Homo sapiens): < 0.6
